“Also recorded” adds a separate entry of the source.
Tests used:
[1] = test system: Arabidopsis plants; assay: Foliar spray application, herbicidal activity; type: in vivo; settings: 2 mL spray, 5 mM active ingredient, 0.02% (v/v) Tween 20, pH 6.7
Method: The inventors tested a range of compounds for their potential herbicidal activity. These consisted of several nonhydrolysable ATP analogues as well as nonhydrolysable analogues of GTP, another nucleotide triphosphate. Arabidopsis plants were grown hydroponically for 2 weeks as described in Example 6B. These plants, still attached to the polyurethane foam discs, were then transferred to phytatrays that contained sand. Plants grown under high humidity conditions, achieved in these enclosed phytatrays, tend to have poor or no development of the waxy cuticle and so are ideal for spray application of solutions with the aid of common surfactants like Tween 20. The plants in each tray were sprayed with 2 mL of an aqueous solution adjusted to pH 6.7 with KOH and containing 5 mM active ingredient and 0.02% (v/v) Tween 20. Control plants were sprayed with the same solution containing only Tween 20 but no active ingredient.

[2] = test system: Arabidopsis cell suspension cultures; assay: 2-D DIGE protein spot abundance, AMP-PCP treatment; type: cell-based; settings: 50 μM AMP-PCP vs water, 72 hours
[3] = test system: Tobacco (Nicotiana tabacum), Arabidopsis, and bean (Phaseolus vulgaris) plants; assay: Leaf infiltration of extracellular ATP depletion systems, whole plants; type: in vivo; settings: 0.5 units/μL apyrase, 1.85 units/μL hexokinase plus 100 mM glucose, 1-5 mM AMP-PCP (pH 6.5); ATP (pH 6.5)
Method: (§1) Tobacco (Nicotiana tabacum), Arabidopsis, and bean (Phaseolus vulgaris) plants were sown in soil and raised in a growth cabinet with a 16-hour photoperiod at 20° C. and 8 hours of darkness at 15° C. The relative humidity was maintained at 60% and the photon flux density was 250 μmolm^−2 s^−1. […] Only the cotyledons of bean plants were treated. The abaxial surface of a small zone of leaf tissue was treated by infiltrating the apoplast with the solution using a syringe and hypodermic needle. The three test solutions had the following concentrations of either: 0.5 units/μL apyrase, 1.85 units/μL hexokinase plus 100 mM glucose, or 1-5 mM AMP-PCP (pH 6.5).
The concentrations used were the same as defined above unless stated otherwise.

[4] = test system: Black Mexican sweet corn cells; assay: Cell viability of corn suspension cells; type: cell-based, Zea mays; settings: 1 mM ATP, 1 mM AMP-PCP, 100 units/mL apyrase, 200 units/mL hexokinase; 100 mM glucose in culture
[5] = test system: Arabidopsis thaliana cell suspension cultures; type: cell-based; settings: for cell viability / cell death, in words: ADP 1 mM, AMP 1 mM, ATP 1 mM, glucose-6-phosphate 100 mM, boiled apyrase 50 units/ml, boiled hexokinase 200 units/ml with 100 mM glucose
Method: A. thaliana cell cultures were grown as described in example 1. Aliquots of the cell suspension (1.5 mL) were treated with a final concentration of 0, 20, 50, or 100 units/mL of apyrase. […] The dead cells had become buoyant and adhered to the walls of the vials, forming a ring just above the edge of the swirling medium. The ring of cells was sometimes dislodged and fell into the medium, resulting in apyrase-treated cultures having flakes of dead cells at the bottom of the vials.
To quantify the effect of apyrase on cell viability, the ability of the cells to grow and multiply subsequent to treatment was measured after diluting the cultures by over 30 times in fresh medium not containing any additives. This was achieved by transferring the cells treated for 3 days to 50 mL of fresh growth medium and allowing them to grow for a further 4 days. At the end of this period, triplicate 1 mL aliquots were sampled from the cultures and the volume of the cells was measured and expressed as a percentage of the culture volume. The method used to determine the packed cell volume was as follows: 1 mL cell culture aliquots were placed in 1.5 mL microfuge tubes and the cells gently compacted by centrifuging (1000 rpm., 10 minutes) in a swing-out rotor (Grundrotor 11030; Sigma laborzentrifugen GmbH, Oestrode, Germany). The level of the cells was marked on the wall of the tube and the volume of cells determined by measuring the volume of water needed to fill the tube to the marked level. The packed cell volume was expressed as the volume occupied by cells as a percentage of 1000 μL.
In each case the error bars represent the standard deviation.

[6] = test system: tobacco leaves; assay: Leaf infiltration, tobacco; type: in vivo, Nicotiana tabacum; settings: for local tissue death after infiltration of tobacco leaves: 1 mM AMP-PCP, 1 mM ATP, apyrase, hexokinase plus glucose; for state of tobacco plant after treatment of a leaf: 5 mM AMP-PCP or equivalent amount of ATP, after 4 days
Method: as §1

[7] = test system: tobacco plants; assay: Foliar spray on soil-grown tobacco plants; settings: 5 mM in 0.02% Tween 20, 2 mL spray, three days after treatment
[8] = test system: Arabidopsis cell cultures; assay: H2O2 accumulation after elicitor treatment; type: cell-based; settings: exogenous ATP with elicitor
[9] = test system: Arabidopsis plants; settings: cited from earlier work
[10] = test system: Arabidopsis cell cultures; assay: MTT assay of cell viability after elicitor or bacteria with or without ATP; type: cell-based; settings: 1 mM ATP, 24 hours

## Nc1ncnc2c1ncn2[C@@H]1O[C@H](COP(=O)(O)OP(=O)(O)O)[C@@H](O)[C@H]1O [ADP, adenosine 5′-diphosphate]
[1]
  Effects on Arabidopsis plants after foliar application: not phytotoxic and None

## Nc1ncnc2c1ncn2C1OC(COP(=O)(O)OP(=O)(O)CP(=O)(O)O)C(O)C1O (stereo not drawn) [AMP-PCP, β,γ-methyleneadenosine 5′-triphosphate]
[2]
  Ratio, spot 613 H84453 Probable heat shock protein [imported]: −1.26
  Ratio, spot 690 gi30693102 NADH dehydrogenase (ubiquinone), mitochondrial: −1.44
  Ratio, spot 703 Luminal binding protein 1 precursor (BiP-1): 1.29
  Ratio, spot 707 Luminal binding protein 1 precursor (BiP-1): 1.45
  Ratio, spot 740 Heat shock cognate 70 kDa protein 2 (hsc70-2): −1.22
  Ratio, spot 778 gi1072473 dnaK-type molecular chaperone hsc70.1: 1.15
  Ratio, spot 795 gi15232682 Heat shock protein hsc70-3: 1.2
  Ratio, spot 906 gi15219234 ATPase 70 kDa subunit-related protein: 1.19
  Ratio, spot 1063 gi30687521 Putative protein disulfide isomerase: 1.24
  Ratio, spot 1069 gi15232827 Threonine ammonia lyase: −1.23
  Ratio, spot 1074 gi11094242 Cytosolic phosphoglucose isomerase: 1.2
  Ratio, spot 1098 gi288063 Ketol-acid reductoisomerase: −1.12
  Ratio, spot 1135 gi9082270 Alanine aminotransferase: 1.2
  Ratio, spot 1148 gi21593375 Unknown protein: 1.24
  Ratio, spot 1155 gi30684419 Dihydrolipoamide dehydrogenase 2, mitochondrial: 1.34
  Ratio, spot 1187 gi21954071 Putative alanine aminotransferase: 1.41
  Ratio, spot 1196 gi14916970 ATP synthase alpha chain, mitochondrial: 1.31
  Ratio, spot 1200 gi15241168 Tubulin alpha-3/alpha-5 chain (TUA3): 1.35
  Ratio, spot 1205 gi2493132 Vacuolar ATP synthase subunit B isoform 2: 1.24
  Ratio, spot 1229 H+-transporting ATP synthase beta chain: 1.4
  Ratio, spot 1241 Enolase (2-phospho-D-glycerate hydrolase): 1.39
  Ratio, spot 1245 H+-transporting ATP synthase beta chain: 1.23
  Ratio, spot 1254 gi15227559 Tubulin beta-7 chain: −1.2
  Ratio, spot 1257 Enolase (2-phospho-D-glycerate hydrolase): 1.51
  Ratio, spot 1264 Enolase (2-phospho-D-glycerate hydrolase): 1.32
  Ratio, spot 1281 gi15234516 Putative thioredoxin: 1.23
  Ratio, spot 1282 Adenosylhomocysteinase: 1.46
  Ratio, spot 1292 Adenosylhomocysteinase: 1.29
  Ratio, spot 1439 gi14594802 Translation initiation factor elf-4A1: 1.84
  Ratio, spot 1460 gi7485313 Hypothetical protein F10M10.120: −1.1
  Ratio, spot 1481 gi15234354 S-adenosylmethionine synthetase 2: −1.3
  Ratio, spot 1497 gi21536853 Putative phosphoglycerate kinase: 1.47
  Ratio, spot 1516 Putative S-adenosylmethionine synthetase: 1.22
  Ratio, spot 1649 gi21593388 12-oxophytodienoate reductase (OPR1): −1.22
  Ratio, spot 1718 gi15229530 Glutamine synthetase-related protein: −1.13
  Ratio, spot 1748 gi21593240 GAPDH C subunit (GapC): 1.21
  Ratio, spot 1817 gi3435286 GAPDH C subunit (GapC): 1.13
  Ratio, spot 1868 gi15226185 Putative fructose-bisphosphate aldolase: −1.35
  Ratio, spot 1892 gi14334740 Putative fructose-bisphosphate aldolase: −1.71
  Ratio, spot 1920 gi15237888 Putative NADP-dependent oxidoreductase (P1): −1.45
  Ratio, spot 1943 gi25283601 Malate dehydrogenase [EC 1.1.1.37], chloroplast: 1.22
  Ratio, spot 1959 Malate dehydrogenase [NAD], mitochondrial: −1.11
  Ratio, spot 1964 gi15232468 Malate dehydrogenase [NAD], mitochondrial: 1.21
  Ratio, spot 2221 gi21593226 Putative esterase D: −1.24
  Ratio, spot 2282 gi15228883 Expressed protein: −1.74
  Ratio, spot 2370 gi18390982 ATP-dependent Clp protease proteolytic subunit: 1.38
  Ratio, spot 2422 gi20260140 Multicatalytic endopeptidase complex alpha subunit: −1.21
  Ratio, spot 2443 L-ascorbate peroxidase 1, cytosolic (APX1): −2.51
  Ratio, spot 2552 L-ascorbate peroxidase 1, cytosolic (APX1): −1.47
  Ratio, spot 2562 gi15224582 Putative glutathione S-transferase: 1.4
  Ratio, spot 2605 gi15239652 Putative quinone reductase: 1.38
  Ratio, spot 2626 gi15228805 20S proteasome beta subunit D (PBD1): 1.14
  Ratio, spot 2690 gi20138157 Phospholipid hydroperoxide glutathione peroxidase: 1.21
  Ratio, spot 2734 gi18412406 Expressed protein: −1.93
  Ratio, spot 2832 gi30697295 Actin depolymerizing factor 3-like prptein: −1.29
  Ratio, spot 2842 gi15218373 40S ribosomal protein S12 (RPS12A): −1.3
[3]
  necrotic lesions after local leaf infiltration: development of necrotic lesions in the area where the application was made within 2 days of treatment; also recorded: localised necrotic lesions
[4]
  viability of corn cells: caused significant cell death
[5]; apyrase 0-100 units/mL, hexokinase 0-200 units/mL with 100 mM glucose, AMP-PCP 0-1.5 mM
  cell viability with increasing concentration (dose-response), in words: loss in cell viability
[6]
  local tissue death after infiltration of tobacco leaves: caused localised tissue death
  state of tobacco plant after treatment of a leaf: not only had the treated leaf died (white arrowhead), but so too had portions of some upper, untreated leaves
[7]
  state of tobacco plants: started to die

## Nc1ncnc2c1ncn2[C@@H]1O[C@H](COP(=O)(O)OP(=O)(O)NP(=O)(O)O)[C@@H](O)[C@H]1O [AMP-PNP, adenosine 5′-(β,γ-imido)triphosphate]
[1]
  Effects on Arabidopsis plants after foliar application: had herbicidal activity; also recorded: Phytotoxic

## Nc1ncnc2c1ncn2[C@@H]1O[C@H](COP(=O)(O)O)[C@@H](O)[C@H]1O [AMP]
[5]
  cell viability / cell death, in words: did not result in any change in cell viability

## Nc1ncnc2c1ncn2[C@@H]1O[C@H](COP(=O)(O)OP(=O)(O)OP(O)(O)=S)[C@@H](O)[C@H]1O [ATP-γ-S, adenosine 5′-(γ-thio)triphosphate]
[1]
  Effects on Arabidopsis plants after foliar application: had herbicidal activity; also recorded: Phytotoxic

## Nc1ncnc2c1ncn2[C@@H]1O[C@H](COP(=O)(O)OP(=O)(O)OP(=O)(O)O)[C@@H](O)[C@H]1O [ATP]
[3]
  necrotic lesions after local leaf infiltration: did not result in cell death
[8]
  H2O2 accumulation: failed to prevent H2O2 accumulation
[4]
  viability of corn cells: did not affect the viability of the cells
[9]; adding exogenous ATP
  resistance of plants to xenobiotics: decreased the resistance of plants to xenobiotics
[10]
  effect of exogenous ATP on reduction in cell viability caused by Ps. syringae or Fusarium elicitor: substantially negated
[5]
  cell viability / cell death, in words: did not cause death of treated cells
[6]
  local tissue death after infiltration of tobacco leaves: did not
  state of tobacco plant after treatment of a leaf: remained entirely healthy
[7]
  state of tobacco plants: unaffected
[1]
  Effects on Arabidopsis plants after foliar application: remained healthy and None

## Nc1nc2c(ncn2[C@@H]2O[C@H](COP(=O)(O)OP(=O)(O)OP(=O)(O)O)[C@@H](O)[C@H]2O)c(=O)[nH]1 [GTP, guanosine 5′-triphosphate]
[1]
  Effects on Arabidopsis plants after foliar application: does not and None

## Nc1nc2c(ncn2[C@@H]2O[C@H](COP(=O)(O)OP(=O)(O)OP(O)(O)=S)[C@@H](O)[C@H]2O)c(=O)[nH]1 [GTP-γ-S, guanosine 5′-(γ-thio)triphosphate]
[1]
  Effects on Arabidopsis plants after foliar application: has herbicidal properties; also recorded: Phytotoxic

## [Na+].[Na+].[Na+].[O-]P([O-])([O-])=S [NaPO3S, sodium thiophosphate]
[1]
  Effects on Arabidopsis plants after foliar application: did not cause death and None

## O=C[C@H](O)[C@@H](O)[C@H](O)[C@H](O)COP(=O)(O)O [glucose-6-phosphate]
[5]
  cell viability / cell death, in words: did not affect cell viability

## Nc1ncnc2c1ncn2[C@@H]1O[C@H](COP(=O)(O)CP(=O)(O)O)[C@@H](O)[C@H]1O [α,β-methyladenosine 5′ diphosphate]
[9]; co-administered with cycloheximide
  cycloheximide-resistance of plants over-expressing ecto-ATPase: lost their cycloheximide-resistance

Reference: US20060265776A1, “Viability” (priority 2003, published 2006)
